Results from patent US20250295678A1, “ULTRA LOW DOSAGE ZOLEDRONIC ACID FOR TREATMENT OF RETINAL DISEASE” (The Regents of the University of California, priority 2022, published 2025).
“Also recorded” adds a separate entry of the source.

Legend:
[1] = tested on: polarized primary RPE cultures; assay: Complement-mediated mitochondrial fragmentation in polarized primary RPE monolayers (A2E + NHS, MitoTracker live imaging); assay type: cell-based, porcine
Protocol: Highly differentiated polarized primary RPE cultures were established from freshly harvested porcine eyes as described (Toops et al., 2014). To induce complement-mediate mitochondrial injury, RPE monolayers were treated with the lipofuscin bisretinoid A2E, which compromises mechanisms that protect the RPE from complement activation (Tan et al., 2016). RPE cells were exposed to active complement components (10% normal human serum, NHS, for 10 min at 37° C.) to induce complement activation on the RPE cell surface. […] After NHS exposure, cells were treated with 1 μM zoledronic acid for 3 h. RPE mitochondria were labeled with MitoTracker Deep Red and cells were imaged live on a Nikon spinning disc confocal microscopy as we have described (Tan et al., 2016; La Cunza et al., 2021). Mitochondrial surfaces were reconstructed from 4-dimensional images using Imaris (Bitplane).
Highly differentiated polarized primary RPE cultures were established from freshly harvested porcine eyes as described (Toops et al., 2014). To induce complement-mediate mitochondrial injury, RPE monolayers were treated with the lipofuscin bisretinoid A2E, which compromises mechanisms that protect the RPE from complement activation (Tan et al., 2016). RPE cells were exposed to active complement components (10% normal human serum, NHS, for 10 min at 37° C.) to induce complement activation on the RPE cell surface. […]

primary RPE cultures = assay: Ceramide in primary RPE cultures treated with adiporon; assay type: cell-based, porcine; details: 0.01-1 μM, 3 h
[2] = target: T1, acid sphingomyelinase (ASM) (Homo sapiens, UniProt P17405); details: functional ASM inhibitor, prior publication; cited from earlier work
T1 sequence (P17405 47-631): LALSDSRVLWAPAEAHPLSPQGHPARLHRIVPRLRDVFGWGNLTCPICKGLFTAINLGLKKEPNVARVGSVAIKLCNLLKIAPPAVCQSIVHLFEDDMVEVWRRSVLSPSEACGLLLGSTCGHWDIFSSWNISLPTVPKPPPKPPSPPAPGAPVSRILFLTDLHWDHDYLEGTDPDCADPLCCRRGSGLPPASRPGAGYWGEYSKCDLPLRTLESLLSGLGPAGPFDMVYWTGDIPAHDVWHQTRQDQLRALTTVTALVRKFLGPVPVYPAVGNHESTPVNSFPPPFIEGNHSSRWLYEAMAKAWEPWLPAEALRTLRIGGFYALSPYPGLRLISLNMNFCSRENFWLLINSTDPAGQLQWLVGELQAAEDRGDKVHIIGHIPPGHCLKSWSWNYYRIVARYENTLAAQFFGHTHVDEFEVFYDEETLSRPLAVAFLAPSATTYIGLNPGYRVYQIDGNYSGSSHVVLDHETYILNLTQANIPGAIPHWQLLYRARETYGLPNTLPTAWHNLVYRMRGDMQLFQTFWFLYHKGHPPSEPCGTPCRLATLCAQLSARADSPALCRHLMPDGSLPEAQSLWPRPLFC

Compound	complement-mediated mitochondrial fragmentation in the RPE in vitro ([1]; 1 μM for 3 h after NHS exposure (FIG. 5, FIG. 9))	complement-induced mitochondrial injury in primary RPE cultures ([1]; 0.01-1 μM, 3 h (0.01 μM data not shown))	ceramide in primary RPE cultures (primary RPE cultures)	ceramide accumulation (prior work) [2]
O=C(COc1ccc(C(=O)c2ccccc2)cc1)NC1CCN(Cc2ccccc2)CC1 [adiporon]	prevented complement-mediated mitochondrial fragmentation	preventing complement-induced mitochondrial injury	effective in decreasing ceramide	–
CNCCCN1c2ccccc2CCc2ccccc21 [desipramine]	–	–	–	decreases ceramide alone; also recorded: can effectively inhibit ceramide accumulation
